Four molecules from PMC8786932, “Bicyclic azetidines target acute and chronic stages of Toxoplasma gondii by inhibiting parasite phenylalanyl t-RNA synthetase” (Nature Communications, 2022) can be followed below.

SMILES strings stand for the structures. Several values for one entry are separate records, joined by “and”; a condition that tells them apart may be missing. Equal values may be shown once. Read-outs that look alike come from different tables or passages of the source.

Assay [1] has as its system T. gondii tachyzoites (type II ME49-FLuc). In words: Luciferase-based tachyzoite growth assay. The class given is cell-based, Toxoplasma gondii. The arrangement: EC50 log inhib vs normalized response: unit: µM. The procedure: All assays were carried out in a 96-well plate format containing confluent HFF monolayers to support parasite growth. To avoid edge effects, only the inner 60 wells of each plate were used. All compounds described were provided by the Broad Institute as 10 mM stocks in 100% DMSO and stored at −80 °C prior to use. Pyrimethamine (Sigma-Aldrich) was prepared as 5 mM stock in 100% DMSO and stored at −20 °C prior to use.
(§1) All statistical analyses were conducted using Prism 9 (GraphPad Software, Inc.). Dose–response inhibition curves for parasite and host cell toxicity screens (EC50 values) were generated using (Log(inhibitor) vs. normalized response—Variable slope) function. […] For multiple comparisons, two-way ANOVA analysis function using either Sidák’s multiple comparisons test or Dunnett’s multiple comparisons test was applied as indicated.

Another assay has as its system T. gondii RH-FLuc parent. In words: Luciferase growth assay, parental line of resistance selection. The class given is cell-based, Toxoplasma gondii. To be noted: for luciferase signal (raw): parent. An excerpt:
[…]. […] […].

The target of the next assay is TgPheRS[V262A] (Toxoplasma gondii, UniProt A0A125YPN6, V262A). Nature of the assay: Enzyme assay, TgPheRS V262A. The class given is biochemical. To be noted: Table S4, V262A; read-out: IC50 (enzyme inhibition).
Assay [2] relates to T. gondii ME49-FLuc tissue cysts. The class given is in vivo, Ifngr1-/- mice. The procedure:
(§2) Ifngr1^−/− (B6.129S7-Ifngr1 ^tm1Agt /J) and CBA/J mice were purchased from Jackson Laboratory and bred locally at Washington University. Animal studies were conducted according to the U.S. Public Health Service policy on human care and use of laboratory animals. Animals were maintained in facilities approved by the Association for Assessment and Accreditation of Laboratory Animal Care. Studies were approved by Division of Comparative Medicine, Washington University. […] Animals were maintained on a 12:12 light cycle, room temperature maintained at 70℉ ± 2℉, and room humidity maintained at 50% ± 20%.
(§3) Testing of compounds to prevent reactivation of chronic infection was […] to test the efficacy of PheRS inhibitors against chronic infection. In both cases, male and female C57BL/6 Ifngr1^−/− mice were infected by oral gavage with 5 cysts of the ME49-Fluc strain isolated from chronically infected CBA/J mice. […] Animals were monitored for survival and weight loss for 30 days post-treatment.

The subject of assay [3] is T. gondii ME49-FLuc chronic infection. The class given is in vivo, Ifngr1-/- mice. The settings on record: for Days (survival time of single mouse) / Survival event flag of single mouse (1 or 0): Fig 6C. The procedure: as §2, §3
Assay [4] has as its system in vitro derived T. gondii ME49-FLuc bradyzoites. In words: Plaque assay of bradyzoites induced in vitro for 14 days. The class given is cell-based, Toxoplasma gondii. To be noted: Fig 5F, replicates. The procedure: To monitor the effects of compounds on more mature in vitro derived bradyzoites, ME49-Fluc tachyzoites were inoculated onto HFF monolayers grown in T25[2] flasks and bradyzoites were induced for 12 days in RPMI 1640 pH 8.2 at ambient CO2 and 37°C. Cultures were then treated with compounds at EC90 or 3XEC90 for another 2 days. At the end of 14 days, monolayers were scraped and passed through a 23 g needle to liberate cysts, followed by centrifugation (400 × g, 10 min, 4 °C). Pellets were resuspended with Pearce^TM streptavidin magnetic beads (Thermo Fisher) pre-coupled with biotinylated DBL (Vector laboratories) and incubated for 1 h at 4 °C. Beads were collected and washed twice using a magnetic stand, followed by treatment with 0.25 mg/ml trypsin for 10 min to liberate bradyzoites. Released bradyzoites were collected from the supernatant and counted using a hemocytometer. Bradyzoites were inoculated onto 6-well plates confluent with HFF monolayers and cultured for 14 days, followed by ethanol fixation and staining with 0.01% crystal violet. Plaques or foci of infection were imaged using an Axiovert 100 microscope equipped with an AxioCam color camera and analyzed by ImageJ.

The subject of assay [5] is A549 (human lung carcinoma). Nature of the assay: in vitro. The class given is cell-based. The settings on record: EC50 host cell/EC50 T. gondii. The procedure:
(§4) For the toxicity screen, compounds were tested in 96-well plates using all the wells as no edge affect was observed. Compounds were diluted to 40 μM (2x concentration in 10% DMEM, 0.4% DMSO) before step-wise, 3-fold dilution in 10% DMEM to create 10-dose series (20 μM to 0.001 μM). Host cells were plated in black, μ-Clear 96-well plates (Greiner Bio-One). We compared several lineages including HepG2 (human hepatocellular carcinoma (ATCC-HB-8065)), THP-1 (human monocytic tumor line), SH-SY5Y (human neuroblastoma (ATCC CRL-2266)), A549 (human lung carcinoma (ATCC CRM-CCL-185)) and Caco-2 (human intestinal adenocarcinoma (ATCC HTB-37)) and HFF (primary human foreskin fibroblast) obtained from the laboratory of John Boothroyd at Stanford University. Cells were maintained in culture media according to the formulations recommended by ATCC. Cells were plated at a density (ranging from of 5 × 10^3 to 2 × 10^4 cells/well (100 μL vol)) resulting in sub-confluent monolayers to allow expansion during the 2 day growth assay. THP-1 cells were treated with 10 ng/ml phorbol 12-myristate 13-acetate (PMA) for 24 h to differentiate into macrophages before compound addition. For all other cells, compounds were added at 6 h post seeding to host cells containing plates (200 μL final volume, 0.2% DMSO) and incubated in culture medium at 37 °C supplemented with 5% CO2. At 44 h post compound addition (50 h total growth time), culture media was aspirated and replaced with Live Imaging solution (ThermoFisher) supplemented with 10 μg/mL Hoeschst 33342 (Sigma) for 20 min at 37 °C. […] Alternatively, plates fixed with 4% formaldehyde for 10 min and stained with 10 μg/mL Hoeschst 33342 (Sigma) for 20 min and imaged using a Cytation 3 multi-mode imager (DAPI, 10x objective, 4 images/well) and nuclei quantified using the Gen5 imager software (v3.08). Assays were repeated with two technical replicates within each of two independent biological replicates.
as §1

Assay [6] concerns HepG2 (human hepatocellular carcinoma). In words: in vitro. The class given is cell-based. The settings on record: EC50 host cell/EC50 T. gondii. The procedure: as §4, §1
Where [7] appears, read: Toxoplasma gondii, ME49-FLuc, 10-point dose-response, two biological replicates, read-out: EC50, T. gondii tachyzoite growth.
Setting [8] is: Toxoplasma gondii, Table 2, read-out: T. gondii EC50.
[9] abbreviates: Toxoplasma gondii, Table S1, ME49-FLuc tachyzoites, read-out: T. gondii EC50.
The mark [10] stands for this setting: Toxoplasma gondii, from 10-dose-response curve of Fig. 1, read-out: EC90, tachyzoite growth.
[11] abbreviates: Fig 1A rank order, T. gondii growth.
[12] abbreviates: Toxoplasma gondii, Fig 2A Tg_Pf_Cp EC50s, read-out: EC50 T. gondii.

For the molecule `COc1ccc(NC(=O)N2CCCCN3[C@H](CN(C)C)[C@H](c4ccc(C#Cc5ccccc5)cc4)[C@@H]3C2)cc1` [BRD7929], the “EC50 log inhib vs normalized response” value in assay [1] is on record as 0.0226. This molecule also gave a 3XEC90 in assay [1] (Fig 6A source data) of 293.00. For the same molecule, the EC50 stood at 22.6 nM in assay [1] (ME49-FLuc, 10-point dose-response, two biological replicates, listed as BR7929, read-out: EC50, T. gondii tachyzoite growth); 23 nM in assay [1] (setting [7]); 23 nM in assay [1] (setting [8]); 22 nM in assay [1] (setting [9]); 23 nM in assay [1] (Toxoplasma gondii, Fig 6A source data, in vitro tachyzoites, read-out: EC50); 14 nM in the assay on T. gondii RH-FLuc parent (Toxoplasma gondii, read-out: EC50, parent RH-FLuc). In addition, the EC90 worked out at 98 nM in assay [1] (Toxoplasma gondii, Fig 6A source data, in vitro tachyzoites, read-out: EC90) and 98 nM in assay [1] (setting [10]). In addition, the “3xEC90, tachyzoite growth” value in assay [1] (three times EC90) came to 0.293 µM. Further, the “luciferase signal (raw)” value in the assay with T. gondii RH-FLuc parent (concentration 2.222222) was 5 and 6 and 7 and 8; in the assay on T. gondii RH-FLuc parent (concentration 6.666667), 5 and 4 and 6. In addition, the “luciferase signal (raw, Fig 3B source data)” value in the assay on T. gondii RH-FLuc parent ({}) was 5. Also, the IC50 at TgPheRS[V262A] was 207 nM. Also, the “survival vs sulfadiazine, oral challenge model” value in assay [2] (10 mg/kg p.o. 20 days, P = 0.0487, Mantel-Cox) was “survived significantly longer than sulfadiazine mice”. Besides, the results for the mean survival in assay [2] (10 mg/kg p.o. QD for 10 days from 48 h post-challenge) and in assay [2] (10 mg/kg p.o. QD for 20 days from 48 h post-challenge) were 16.5 days and 21 days, respectively. In addition, in assay [2] (10 mg/kg p.o. QD, 20 days), the “mice in which death was prevented” value was 3 of 8. Moreover, the “animals cured by treatment, overall” value in assay [2] (10 day and 20 day cohorts together) was 4 of 16. In assay [3] (10 mg/kg p.o. QD, 16 days), the “onset of death, reactivation model” value was “delayed onset of death”. The “survival vs vehicle, reactivation model” value in assay [3] (10 mg/kg p.o. once a day, 16 days, P = 0.0003, Mantel-Cox) is listed as “survived significantly longer”. Also, the “Days (survival of individual mice)” value in assay [3] (10 mg/kg, c3: 1 = death, 0 = survivor) was 10 days and 12 days and 24 days and 20 days and 30 days and 23 days and 22 days. Further, the “Days (survival time of single mouse)” value was 13 days and 29 days and 14 days and 17 days and 19 days and 16 days in assay [3] (10d-10 mg / kg); 29 days and 17 days and 15 days and 20 days and 19 days and 22 days in assay [3] (20d - 10 mg / kg, 10 mg/kg). Moreover, the “Survival event flag of single mouse (1 or 0)” value is 1 and 0 in assay [3] (10d-10 mg / kg); 0 and 1 in assay [3] (20d - 10 mg / kg, 10 mg/kg). Moreover, the Plaque numbers in assay [4] (3xEC90) and in assay [4] (EC90) was 0 in each case.
For the molecule `CN(C[C@@H]1[C@H](c2ccc(C#Cc3ccccc3)cc2)[C@@H]2CN(C(=O)Nc3ccc(OC4CC4)cc3)CCCCN12)S(C)(=O)=O` [BRD2987], in assay [1] (setting [11]), the “EC50 log inhib vs normalized response” value is recorded as 0.01849. Besides, the EC50 worked out at 18.5 nM in assay [1] (Toxoplasma gondii, Fig S2 source data, read-out: T. gondii (EC50, Fig S2 source data)); 18.5 nM in assay [1] (setting [7]); 19 nM in assay [1] (setting [8]); 18 nM in assay [1] (setting [9]). Also, in assay [5], the A549 fold selectivity is 114.0 fold. Further, the Plaque numbers in assay [4] (3xEC90) is 0 and 5; in assay [4] (EC90), 0.
In the case of `COc1ccc(NC(=O)N2CCCCN3[C@H](CO)[C@H](c4ccc(C#Cc5ccccc5)cc4)[C@@H]3C2)cc1` [BRD3444], the “EC50 log inhib vs normalized response” value in assay [1] (setting [11]) is on record as 0.02885. Moreover, the EC50 in assay [1] (setting [12]) amounted to 28.9 nM; in assay [1] (setting [7]) it was 28.9 nM; in assay [1] (setting [8]), 29 nM; in assay [1] (setting [9]) it was 28 nM. This molecule yielded an HEPG2 fold selectivity in assay [6] of 390.6 fold. The Plaque numbers in assay [4] (3xEC90) was 0; in assay [4] (EC90) it was 5 and 0.
In the case of `COc1ccc(NC(=O)N2CCCCN3[C@H](CN(C)S(C)(=O)=O)[C@H](c4ccc(C#Cc5ccccc5)cc4)[C@@H]3C2)cc1` [BRD8494], in assay [1] (setting [11]), the “EC50 log inhib vs normalized response” value is 0.03476. Moreover, the EC50 in assay [1] (setting [12]) was 34.8 nM; in assay [1] (setting [7]), 34.8 nM; in assay [1] (setting [8]), 35 nM; in assay [1] (setting [9]), 34 nM. In addition, in assay [1] (setting [10]), the EC90 turned out to be 95 nM. In assay [5], this molecule yielded an A549 fold selectivity above 571.4 fold. In assay [6], the HEPG2 fold selectivity came out at 571.4 fold. The Plaque numbers in assay [4] (3xEC90) and in assay [4] (EC90) was 0 in each case.

By EC50 is commonly meant the concentration that produces a half-maximal response. Usually EC90 stands for the point of the concentration-response curve where the effect stands at 90%. Broadly, the IC50 is the concentration needed to halve the response being measured.
